Here are results for one substance from patent US20050118109A1, “Method for treating lung diseases associated with ventilation-perfusion mismatches” (priority 2003, published 2005).

In assay [1] the test system is pulmonary vascular system. Conditions: in vivo; cited from earlier work.
In assay [2] the test system is arthritis in an experimental model. Conditions: treatment with VIP; cited from earlier work.
For a further assay, the target named is T1, Type I binding sites (Homo sapiens, UniProt P41586).
T1 sequence (P41586 21-468): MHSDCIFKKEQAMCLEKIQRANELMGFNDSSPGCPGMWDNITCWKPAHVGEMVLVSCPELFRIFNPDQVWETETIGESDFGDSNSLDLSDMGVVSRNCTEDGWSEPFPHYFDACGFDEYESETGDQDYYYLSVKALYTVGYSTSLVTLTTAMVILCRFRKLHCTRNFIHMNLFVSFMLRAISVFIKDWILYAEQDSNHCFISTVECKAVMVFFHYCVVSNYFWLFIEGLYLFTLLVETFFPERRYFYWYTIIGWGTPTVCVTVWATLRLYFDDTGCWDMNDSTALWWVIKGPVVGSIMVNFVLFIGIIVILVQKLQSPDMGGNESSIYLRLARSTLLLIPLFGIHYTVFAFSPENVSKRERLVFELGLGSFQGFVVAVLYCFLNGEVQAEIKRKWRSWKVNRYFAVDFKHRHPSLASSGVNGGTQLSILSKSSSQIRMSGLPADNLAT
Conditions: cited from earlier work.

The subject of assay [3] is patient with chronic bronchitis with V/Q-mismatch. The assay is described as follows: Inhalation of VIP by patient No. 4: chronic bronchitis with V/Q-mismatch, no bronchial obstruction. The class given is in vivo, human.
Where [4] appears, read: patient No. 4, after 1 and 2 days of inhalation.

On to “His-Ser-Asp-Ala-Val-Phe-Thr-Asp-Asn-Tyr-Thr-Arg-Leu-Arg-Lys-Gln-Met-Ala-Val-Lys-Lys-Tyr-Leu-Asn-Ser-Ile-Leu-Asn [VIP]”, for which the “resistance in the pulmonary vascular system” value in assay [1] is given as “decrease the resistance”. Also, in assay [2], the “incidence and severity of arthritis” value is given as “reduce significantly”; the “joint swelling and destruction of cartilage and bone” value is given as “completely abrogating”. The “affinity for type I binding sites” value in the assay with Type I binding sites was “much lower affinity”. In assay [3] (setting [4]), the “pulmonary gas exchange in lung function analysis” value is “completely normal pulmonary gas exchange” and the “severe decrease of paO2 caused by V/Q-mismatch” value is “significantly ameliorated”. For the same substance, the V/Q-mismatch result in assay [3] (patient No. 4, after inhalation of VIP) is listed as “totally removed”.
